ChEMBL document CHEMBL3351663, “Discovery of acylurea isosteres of 2-acylaminothiadiazole in the azaxanthene series of glucocorticoid receptor agonists” (Bioorg Med Chem Lett, 2014)

Legend:
Glucocorticoid receptor [1] = target: T1, Glucocorticoid receptor (Homo sapiens, UniProt P04150); assay: Binding affinity to glucocorticoid receptor (unknown origin) by fluorescence polarization assay
T1 sequence (P04150 whole entry): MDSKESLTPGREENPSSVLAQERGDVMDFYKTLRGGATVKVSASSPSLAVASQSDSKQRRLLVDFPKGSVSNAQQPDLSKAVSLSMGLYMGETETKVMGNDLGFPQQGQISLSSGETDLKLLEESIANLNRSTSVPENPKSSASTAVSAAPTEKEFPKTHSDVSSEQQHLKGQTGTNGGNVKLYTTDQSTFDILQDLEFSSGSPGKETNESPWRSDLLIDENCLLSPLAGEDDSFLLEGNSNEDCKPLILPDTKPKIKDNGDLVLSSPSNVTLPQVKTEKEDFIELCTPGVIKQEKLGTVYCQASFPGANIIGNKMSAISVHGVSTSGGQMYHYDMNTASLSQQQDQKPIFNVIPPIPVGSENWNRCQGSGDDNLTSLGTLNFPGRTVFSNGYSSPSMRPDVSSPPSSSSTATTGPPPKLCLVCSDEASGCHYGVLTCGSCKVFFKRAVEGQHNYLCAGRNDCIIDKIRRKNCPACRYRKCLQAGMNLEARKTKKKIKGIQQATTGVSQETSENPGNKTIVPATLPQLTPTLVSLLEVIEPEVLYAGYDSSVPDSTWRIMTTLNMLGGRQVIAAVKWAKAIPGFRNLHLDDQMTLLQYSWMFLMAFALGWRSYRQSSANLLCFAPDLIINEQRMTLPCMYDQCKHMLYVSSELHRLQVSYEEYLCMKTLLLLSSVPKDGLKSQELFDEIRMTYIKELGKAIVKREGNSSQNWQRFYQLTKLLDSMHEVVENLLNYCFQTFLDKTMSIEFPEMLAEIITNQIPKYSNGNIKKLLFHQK

Liver = assay: Metabolic stability in mouse liver microsomes assessed as compound remaining
[2] = target: T2, Mineralocorticoid receptor (Homo sapiens, UniProt P08235); assay: Agonist activity at mineralocorticoid receptor in human A549 cells; type: cell-based
T2 sequence (P08235 whole entry): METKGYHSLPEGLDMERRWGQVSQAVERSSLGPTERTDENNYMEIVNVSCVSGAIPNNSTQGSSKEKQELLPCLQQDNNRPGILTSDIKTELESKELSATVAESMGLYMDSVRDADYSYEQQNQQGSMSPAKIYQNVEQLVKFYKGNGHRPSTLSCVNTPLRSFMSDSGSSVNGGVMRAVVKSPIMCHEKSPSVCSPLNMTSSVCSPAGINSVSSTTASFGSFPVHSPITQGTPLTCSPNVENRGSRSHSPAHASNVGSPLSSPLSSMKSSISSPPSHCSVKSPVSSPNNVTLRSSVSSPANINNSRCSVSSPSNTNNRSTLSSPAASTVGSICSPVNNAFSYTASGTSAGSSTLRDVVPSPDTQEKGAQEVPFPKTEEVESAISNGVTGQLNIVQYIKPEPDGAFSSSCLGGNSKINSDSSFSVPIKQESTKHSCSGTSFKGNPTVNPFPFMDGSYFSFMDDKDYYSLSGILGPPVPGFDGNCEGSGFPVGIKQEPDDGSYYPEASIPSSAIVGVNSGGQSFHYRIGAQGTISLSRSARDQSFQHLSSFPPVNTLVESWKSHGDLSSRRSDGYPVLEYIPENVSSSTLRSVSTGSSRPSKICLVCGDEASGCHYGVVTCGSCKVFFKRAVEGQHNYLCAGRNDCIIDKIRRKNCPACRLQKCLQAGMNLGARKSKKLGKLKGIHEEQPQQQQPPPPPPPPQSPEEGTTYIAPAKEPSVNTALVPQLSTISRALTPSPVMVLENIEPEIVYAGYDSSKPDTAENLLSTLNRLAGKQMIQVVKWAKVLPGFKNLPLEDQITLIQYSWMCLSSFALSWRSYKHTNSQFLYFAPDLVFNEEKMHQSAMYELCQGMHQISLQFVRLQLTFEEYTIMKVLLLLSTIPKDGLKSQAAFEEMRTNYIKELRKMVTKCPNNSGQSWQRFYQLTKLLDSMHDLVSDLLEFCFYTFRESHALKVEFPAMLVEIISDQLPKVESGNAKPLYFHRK

Glucocorticoid receptor [3] = target: T1, Glucocorticoid receptor; assay: Agonist activity at glucocorticoid receptor in human A549 cells assessed as E-selectin transrepression by luciferase reporter gene assay; type: cell-based
Liver microsome [4] = assay: Metabolic stability in rat liver microsomes assessed as compound remaining
Liver microsome [5] = assay: Metabolic stability in human liver microsomes assessed as compound remaining

Row | SMILES | Ki (Glucocorticoid receptor [1]) [nM] | Stability (Liver) [%] | EC50 [2] [µM] | EC50 (Glucocorticoid receptor [3]) [nM] | Stability (Liver microsome [4]) [%] | Stability (Liver microsome [5]) [%]
1 | CC(C)(C(=O)NC(N)=O)[C@@H]1c2ccc(-c3ccc(C(=O)N4CCOCC4)cc3)nc2Oc2c(F)cccc21 | 2.1 | 80 | > 5 | 1.2 | 90 | 83
2 | CC(C)(C(=O)Nc1nncs1)[C@@H]1c2ccc(-c3ccc(C(=O)N4CCOCC4)cc3)nc2Oc2c(F)cccc21 | 1.6 |  | > 5 |  |  | 
